Earlier results, collected in patent publication US6414139B1, “Silicon amphiphilic compounds and the use thereof” (Imarx Therapeutics, Inc., priority 1996, dated 2002).

Conditions: gel state to liquid crystalline state; CRC Handbook of Lipid Bilayers p. 139

Main Phase Transition Temperature [°C]	SMILES
79.5	CCCCCCCCCCCCCCCCCCCCCCC(=O)OC[C@H](COP(=O)([O-])OCC[N+](C)(C)C)OC(=O)CCCCCCCCCCCCCCCCCCCCCC [1,2-(23:0)]
80.1	CCCCCCCCCCCCCCCCCCCCCCCC(=O)OC[C@H](COP(=O)([O-])OCC[N+](C)(C)C)OC(=O)CCCCCCCCCCCCCCCCCCCCCCC [1,2-(24:0)]
